In US20150018383A1, “BIOMARKERS OF RENAL DISORDERS” (Institut National de la Sante et de la Recherche Medicale …, priority 2011, published 2015):
“Also recorded” adds a separate entry of the source.

Assays:
[1] = test system: glomerular cells (TUNEL-positive nuclei); assay: Glomerular TUNEL apoptosis assay in kidney transplant biopsies; type: in vivo, human; conditions: renal transplant recipients with lower eGFR, sirolimus-treated versus not treated
Method: (§1) The study was conducted on 80 renal transplant recipients followed at the Renal Transplant Department of Necker hospital.
Apoptosis was detected in 4-μm sections of paraffin-embedded kidneys by TUNEL assay using the In Situ Cell Death Detection kit (Roche) according to the manufacturer's protocol. The glomerular apoptotic index was calculated as the number of glomeruli with at least one TUNEL-positive nuclei for the total number of glomeruli. All the microscopic fields of a whole kidney section were quantified.

[2] = Urinary albumin excretion in renal transplant recipients; type: in vivo, human
Method: as §1
For human samples, urinary creatinine and albumin were determined using a Hitachi 917 analyzer (Roche Diagnostics), whereas plasma creatinine and sirolimus were evaluated using a Synchron Cx4 autoanalyser (Beckman Coulter) and high-performance liquid chromatography, respectively.

CO[C@H]1C[C@@H]2CC[C@@H](C)[C@@](O)(O2)C(=O)C(=O)N2CCCC[C@H]2C(=O)O[C@H]([C@H](C)C[C@@H]2CC[C@@H](O)[C@H](OC)C2)CC(=O)[C@H](C)/C=C(\C)[C@@H](O)[C@@H](OC)C(=O)[C@H](C)C[C@H](C)/C=C/C=C/C=C/1C [sirolimus]
glomerular apoptosis (TUNEL) [1]: marked increased of apoptosis; also recorded: increased glomerular apoptosis | development of albuminuria / proteinuria upon sirolimus treatment ([2]; cohort of kidney transplant recipients at different stages of renal failure): only patients with severe nephron reduction developed albuminuria; also recorded: marked proteinuria | urinary albumin excretion, serial follow-up ([2]; patient 1, on sirolimus administration): severe albuminuria | urinary albumin excretion, serial follow-up ([2]; patient 2, after removal of sirolimus): reversed albuminuria
